Experimental data from ChEMBL document CHEMBL1201862, “PubChem BioAssay data set” (2004).
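Growth conditions: 96-well plates. Treatment: test compound, 48 hours, 5 concentrations. Analysis: linear interpolation between bracketing concentrations; unreached endpoints set to highest concentration. GI50 marks 50% less growth.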 Calls of active or inactive are those of the source. No stated cut-off is given here; in the data, active = GI50 up to about 1.1 µM and inactive = higher.

Columns and labels:
Experiment in all cases: NCI-60 cell line screen, 48 h
[1] = test system: EKVX
[2] = test system: HCC 2998
[3] = test system: HL-60
[4] = test system: HT-29
[5] = test system: KM12
[6] = test system: M14
[7] = test system: NCI-H460
[8] = test system: OVCAR-5
[9] = test system: OVCAR-8
[10] = test system: RPMI-8226
[11] = test system: RXF 393
[12] = test system: SF-539
[13] = test system: SK-OV-3
[14] = test system: SNB-19
[15] = test system: SW-620
[16] = test system: UACC-257
[17] = test system: HCT-116

SMILES	GI50 [1]	GI50 [2]	GI50 [3]	GI50 [4]	GI50 [5]	GI50 [6]	GI50 [7]	GI50 [8]	GI50 [9]	GI50 [10]	GI50 [11]	GI50 [12]	GI50 [13]	GI50 [14]	GI50 [15]	GI50 [16]	GI50 [17]
O=C1C2C(C(=O)N1c1ccccc1)C1(c3ccccc3)OC2(c2ccccc2)c2ccccc21 (stereo not drawn)	> 100 µM (inactive)	> 100 µM (inactive)	> 100 µM (inactive)	> 100 µM (inactive)	> 100 µM (inactive)	> 100 µM (inactive)	> 100 µM (inactive)	4.14 µM (inactive)	> 100 µM (inactive)	> 100 µM (inactive)	> 100 µM (inactive)	> 100 µM (inactive)	> 100 µM (inactive)	> 100 µM (inactive)	> 100 µM (inactive)	> 100 µM (inactive)	–
CCC(=O)c1c(NOC2OCC(OC(C)=O)C(OC(C)=O)C2OC(C)=O)nc(OC)n(C)c1=O (stereo not drawn)	> 100 µM (inactive)	> 100 µM (inactive)	> 100 µM (inactive)	> 100 µM (inactive)	> 100 µM (inactive)	> 100 µM (inactive)	> 100 µM (inactive)	> 100 µM (inactive)	> 100 µM (inactive)	> 100 µM (inactive)	> 100 µM (inactive)	> 100 µM (inactive)	> 100 µM (inactive)	> 100 µM (inactive)	> 100 µM (inactive)	> 100 µM (inactive)	> 100 µM (inactive)
COC(=O)C1CC(=O)O[C@H]1c1ccc(OC)c(OC)c1 (stereo partly drawn)	> 100 µM (inactive)	> 100 µM (inactive)	> 100 µM (inactive)	> 100 µM (inactive)	> 100 µM (inactive)	> 100 µM (inactive)	> 100 µM (inactive)	> 100 µM (inactive)	> 100 µM (inactive)	> 100 µM (inactive)	> 100 µM (inactive)	> 100 µM (inactive)	> 100 µM (inactive)	–	> 100 µM (inactive)	> 100 µM (inactive)	> 100 µM (inactive)
O=C(O)C[C@@H](Cl)[C@H](NC(=O)OCc1ccccc1)C(=O)O	> 100 µM (inactive)	> 100 µM (inactive)	> 100 µM (inactive)	> 100 µM (inactive)	> 100 µM (inactive)	> 100 µM (inactive)	> 100 µM (inactive)	> 100 µM (inactive)	> 100 µM (inactive)	> 100 µM (inactive)	> 100 µM (inactive)	> 100 µM (inactive)	> 100 µM (inactive)	> 100 µM (inactive)	> 100 µM (inactive)	> 100 µM (inactive)	> 100 µM (inactive)
CN(C)C(=S)OC(Cn1cncn1)c1ccc(Cl)cc1Cl (stereo not drawn)	> 100 µM (inactive)	> 100 µM (inactive)	> 100 µM (inactive)	> 100 µM (inactive)	> 100 µM (inactive)	> 100 µM (inactive)	> 100 µM (inactive)	> 100 µM (inactive)	> 100 µM (inactive)	> 100 µM (inactive)	> 100 µM (inactive)	> 100 µM (inactive)	> 100 µM (inactive)	> 100 µM (inactive)	> 100 µM (inactive)	> 100 µM (inactive)	> 100 µM (inactive)
O=C1CSc2cc([N+](=O)[O-])ccc2N1	> 100 µM (inactive)	> 100 µM (inactive)	–	> 100 µM (inactive)	> 100 µM (inactive)	> 100 µM (inactive)	> 100 µM (inactive)	> 100 µM (inactive)	> 100 µM (inactive)	–	> 100 µM (inactive)	> 100 µM (inactive)	> 100 µM (inactive)	> 100 µM (inactive)	> 100 µM (inactive)	> 100 µM (inactive)	> 100 µM (inactive)
CC(=O)NNc1nc(C)c(C(/C=C/c2ccc(Cl)cc2)=N\N=C(N)N)s1	–	> 100 µM (inactive)	> 100 µM (inactive)	> 100 µM (inactive)	> 100 µM (inactive)	82.6 µM (inactive)	> 100 µM (inactive)	> 100 µM (inactive)	> 100 µM (inactive)	> 100 µM (inactive)	> 100 µM (inactive)	> 100 µM (inactive)	> 100 µM (inactive)	> 100 µM (inactive)	> 100 µM (inactive)	> 100 µM (inactive)	> 100 µM (inactive)
CC#CC(=O)Nc1ccccc1CC(c1c[nH]c2ccccc12)c1c[nH]c2ccccc12	14.6 µM (inactive)	18.3 µM (inactive)	10.8 µM (inactive)	16.2 µM (inactive)	22.3 µM (inactive)	15 µM (inactive)	–	–	19.1 µM (inactive)	8.32 µM (inactive)	7.13 µM (inactive)	20.4 µM (inactive)	18.8 µM (inactive)	18.5 µM (inactive)	16.2 µM (inactive)	21.5 µM (inactive)	–
C[C@@H](NS(=O)(=O)c1ccc(NC(=O)c2ccccc2)cc1)C(=O)O	> 100 µM (inactive)	> 100 µM (inactive)	> 100 µM (inactive)	> 100 µM (inactive)	> 100 µM (inactive)	> 100 µM (inactive)	> 100 µM (inactive)	> 100 µM (inactive)	> 100 µM (inactive)	> 100 µM (inactive)	> 100 µM (inactive)	> 100 µM (inactive)	> 100 µM (inactive)	> 100 µM (inactive)	> 100 µM (inactive)	> 100 µM (inactive)	–
Clc1ccc(CCn2cncn2)c(Cl)c1	> 100 µM (inactive)	> 100 µM (inactive)	> 100 µM (inactive)	> 100 µM (inactive)	> 100 µM (inactive)	> 100 µM (inactive)	> 100 µM (inactive)	> 100 µM (inactive)	> 100 µM (inactive)	–	–	> 100 µM (inactive)	> 100 µM (inactive)	> 100 µM (inactive)	> 100 µM (inactive)	> 100 µM (inactive)	> 100 µM (inactive)
O=S(=O)(/C=C/c1ccc(Cl)cc1Cl)Cc1ccccc1CS(=O)(=O)/C=C/c1ccc(Cl)cc1Cl	> 100 µM (inactive)	> 100 µM (inactive)	–	49.4 µM (inactive)	> 100 µM (inactive)	> 100 µM (inactive)	88.7 µM (inactive)	> 100 µM (inactive)	7.5 µM (inactive)	5.15 µM (inactive)	65.2 µM (inactive)	> 100 µM (inactive)	> 100 µM (inactive)	> 100 µM (inactive)	> 100 µM (inactive)	52.8 µM (inactive)	9.59 µM (inactive)
COC(=O)C12OCC34C(CC5C(C)C6=CC(=O)OC6=CC5(C)C3C(O)C1O)OC(=O)C(O)C24 (stereo not drawn)	0.716 µM (active)	0.156 µM (active)	0.314 µM (active)	0.217 µM (active)	1.21 µM (inactive)	–	0.204 µM (active)	2.56 µM (inactive)	0.935 µM (active)	0.0809 µM (active)	0.493 µM (active)	0.103 µM (active)	5.16 µM (inactive)	0.0371 µM (active)	0.497 µM (active)	1.5 µM (inactive)	0.306 µM (active)
Cc1c(C(=O)CC(=O)C(=O)Nc2cc(Cl)ccc2Cl)[n+]([O-])c2ccccc2[n+]1[O-]	37.8 µM (inactive)	37.7 µM (inactive)	–	28.5 µM (inactive)	37.3 µM (inactive)	25.3 µM (inactive)	37 µM (inactive)	> 100 µM (inactive)	30.7 µM (inactive)	21.7 µM (inactive)	53.8 µM (inactive)	47.8 µM (inactive)	> 100 µM (inactive)	45.5 µM (inactive)	36 µM (inactive)	34.8 µM (inactive)	35.4 µM (inactive)
N#CC(C(=O)CCC(=O)Nc1ccc(Cl)cc1)c1ccc(Cl)cc1 (stereo not drawn)	> 100 µM (inactive)	> 100 µM (inactive)	> 100 µM (inactive)	> 100 µM (inactive)	91.8 µM (inactive)	52 µM (inactive)	> 100 µM (inactive)	> 100 µM (inactive)	> 100 µM (inactive)	> 100 µM (inactive)	–	> 100 µM (inactive)	> 100 µM (inactive)	> 100 µM (inactive)	> 100 µM (inactive)	> 100 µM (inactive)	65.9 µM (inactive)
COC(=O)CC(C(C(C)=O)C(=O)OCc1ccccc1)N1C(=O)OCC1c1ccccc1 (stereo not drawn)	> 100 µM (inactive)	> 100 µM (inactive)	91.6 µM (inactive)	> 100 µM (inactive)	–	> 100 µM (inactive)	75.2 µM (inactive)	–	> 100 µM (inactive)	51.5 µM (inactive)	> 100 µM (inactive)	> 100 µM (inactive)	–	> 100 µM (inactive)	> 100 µM (inactive)	93.5 µM (inactive)	> 100 µM (inactive)
CCCCCCC1=NOC(C(c2cc[nH]c2)N(C)[C@H](C(=O)OC)C(C)C)C1 (stereo partly drawn)	19.8 µM (inactive)	33.9 µM (inactive)	27.3 µM (inactive)	34 µM (inactive)	21.9 µM (inactive)	51.8 µM (inactive)	–	> 100 µM (inactive)	42.2 µM (inactive)	–	52.7 µM (inactive)	57 µM (inactive)	> 100 µM (inactive)	65.9 µM (inactive)	26.6 µM (inactive)	37.7 µM (inactive)	34.4 µM (inactive)
COC(=O)C1CCC2(C)[C@H](CCC3O[C@]32C)[C@@]1(C)CC(=O)c1ccoc1 (stereo partly drawn)	18.7 µM (inactive)	> 100 µM (inactive)	75 µM (inactive)	–	42.2 µM (inactive)	> 100 µM (inactive)	72.9 µM (inactive)	> 100 µM (inactive)	> 100 µM (inactive)	52.7 µM (inactive)	> 100 µM (inactive)	> 100 µM (inactive)	0.0406 µM (active)	33.9 µM (inactive)	> 100 µM (inactive)	> 100 µM (inactive)	65.6 µM (inactive)
